Assay results taken from US20080311589A1, “METHOD OF HIGH-THROUGHPUT SCREENING OF MOLECULES AND COMPOUNDS FOR THEIR EFFECTS ON BIOLOGICAL AND CHEMICAL PROCESSES” (priority 1999, published 2008).

What was measured:
[1] = tested on: transiently transfected TGFβ-responsive reporter; test: transient transfection luciferase assay, p3TPLux; type: cell-based, mink
Procedure: LUCIFERASE ASSAYS: Our transient transfection luciferase assay was described previously by us (Stockwell et al., Chem Biol 5:385, 1998). Briefly, 100,000 Mv1Lu mink lung epithelial cells were transiently transfected in 12-well dishes with 400 ng p3TPLux or pNFkB-Lux, with or without 50 ng pFC-MEKK, in 300 μL minimal essential medium with non-essential amino acids. The DEAE-dextran/chloroquine/DMSO methods was used for transfection (Stockwell et al., Chem Biol 6:71, 1999). After cell lysis in 120 μL lysis buffer, a Beckman LS 6500 liquid scintillation counter was used in single photon mode to quantitate luminescence. For detection of luciferase activity in 6F cells (including the primary screen), 20,000 6F cells were seeded in 50 μL of 10% mink medium in each well of a white 384-well plate (Nalge Nune International; Naperville, Ill.; cat#164610) using a Multidrop 384 liquid dispenser (Lab Systems; Helsinki, Finland). After 16 hours, medium was removed using a 24 channel wand (V&P Scientific, Inc.; San Diego, Calif.; cat#VP 186L), the cells were washed with 75 μL of 0.2% mink medium (containing 0.2% FBS), and reagents were added in 40 μL of 0.2% medium. For the primary screen, reagents were added by pin transfer using 384 polypropylene pin arrays (Matrix Technologies; Hudson, N.H.). After 24 hours, the cells were cooled on ice and washed twice with 75 μL Hanks Balanced Salt Solution (HBSS; GibcoBRL; cat#24020-117). Then 20 μL lysis buffer (25 mM glycylglycine (Sigma; cat#E-0396), 1% Triton X-100 (Sigma; cat#T-9284), 1 mM dithiothreitol (DTT; Sigma; cat#D-5545), 1 mM phenylmethylsulfonyl fluoride (PMSF; Sigma; cat#P-7626)) was added to each well with a Multidrop. After incubating the cells for five minutes on ice, 20 μL of ATP/luciferin solution was added (25 mM glycylglycine pH 7.8, 15 mM MgSO4, 4 mM EGTA, 6.25 mM K2HPO4 (Sigma; cat#P5504) pH 7.8, 5 mM DTT, 75 μM D-luciferin (Sigma, cat# L-9504, 2 mM ATP (Sigma; cat#A-7699)). Light output was immediately measured with an Analyst 384-well platereader (LJL), with 0.5 second counting time per well.

[2] = molecular target: T1, recombinant Eg5 (Xenopus laevis, UniProt P28025); test: Eg5 driven microtubule gliding in vitro; type: biochemical; conditions: for reversibility of inhibition (washout): monastrol 200 μM, then washout
T1 sequence (P28025 1-1067): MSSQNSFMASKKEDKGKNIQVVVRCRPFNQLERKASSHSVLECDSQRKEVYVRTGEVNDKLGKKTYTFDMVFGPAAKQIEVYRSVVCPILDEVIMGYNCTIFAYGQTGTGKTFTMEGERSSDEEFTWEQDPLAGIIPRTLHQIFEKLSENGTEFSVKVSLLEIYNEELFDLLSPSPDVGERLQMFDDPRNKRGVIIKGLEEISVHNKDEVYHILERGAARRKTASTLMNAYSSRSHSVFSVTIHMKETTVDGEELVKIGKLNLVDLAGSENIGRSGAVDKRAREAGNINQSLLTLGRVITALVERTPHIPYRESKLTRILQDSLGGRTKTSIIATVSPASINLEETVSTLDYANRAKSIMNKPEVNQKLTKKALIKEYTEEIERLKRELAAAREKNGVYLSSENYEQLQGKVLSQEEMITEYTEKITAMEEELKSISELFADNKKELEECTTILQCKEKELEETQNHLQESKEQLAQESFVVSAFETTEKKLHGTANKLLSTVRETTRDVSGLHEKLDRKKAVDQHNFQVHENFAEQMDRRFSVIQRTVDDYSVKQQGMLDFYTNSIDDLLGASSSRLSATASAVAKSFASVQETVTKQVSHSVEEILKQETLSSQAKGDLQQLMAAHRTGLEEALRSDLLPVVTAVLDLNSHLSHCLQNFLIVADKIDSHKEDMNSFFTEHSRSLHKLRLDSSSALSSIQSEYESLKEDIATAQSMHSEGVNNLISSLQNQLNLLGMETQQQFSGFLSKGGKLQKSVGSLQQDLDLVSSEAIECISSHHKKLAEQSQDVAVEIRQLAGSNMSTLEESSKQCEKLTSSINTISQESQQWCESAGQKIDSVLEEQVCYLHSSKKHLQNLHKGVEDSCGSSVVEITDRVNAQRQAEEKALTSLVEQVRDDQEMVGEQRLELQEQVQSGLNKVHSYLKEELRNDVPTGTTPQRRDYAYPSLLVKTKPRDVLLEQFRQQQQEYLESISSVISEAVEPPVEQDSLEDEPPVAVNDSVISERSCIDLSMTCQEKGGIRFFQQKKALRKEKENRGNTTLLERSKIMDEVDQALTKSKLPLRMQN
Procedure: FIG. 26. […] Conventional kinesin motility was not inhibited in the same assay. A. Model for spindle bipolarity. Plus-end directed motors, such as Eg5 are thought to be involved in the separation of the centrosomes and the establishment of a symmetric spindle axis. B. Inhibition of the kinesin Eg5 results in monastrol spindles. Microtubules, green; chromosomes, blue. Eg5 is depicted as homotetramer (9). C. […] After imaging Eg5 driven microtubule gliding in the presence of monastrol (200 μM), the same assay chamber was depleted of compound and the microtubule gliding recorded (Washout). […] D. Chemical structures of monastrol and DHP2.
Mitotic kinesins have been implicated in anti-parallel overlap interactions (Walczak et al., Curr. Biol. 8:903, 1998). Inhibition of the tetrameric mitotic kinesin Eg5 with antibodies induced monoasters (Sawin et al., Nature 359:540, 1992; Blangy et al., Cell 83:125, 1995; Sharp et al., J. Cell Biol. 144:125, 1999). We therefore hypothesized that Eg5 might be a target of monastrol. Like other motile kinesins, Eg5 can drive in vitro microtubule gliding (Sawin et al., Nature 359:540, 1992; Kapoor et al., Proc. Natl. Acad. Sci. USA, 1999). We tested whether monastrol inhibits Eg5 motility in vitro. […] Microtubule attachment to the Eg5 coated coverslip was maintained in the presence of monastrol (FIG. 26C). […] To test whether inhibition of the Eg5 driven microtubule gliding is specific to monastrol, we tested the closely related compound DHP2 (FIG. 26D).

activation of transiently versus stably transfected TGFβ-responsive reporter [1] | IC50 [2] [µM] | IC50 (inhibitory concentration), Eg5 driven microtubule motility [2] [µM] | reversibility of inhibition (washout) [2] | reversibility of inhibition (washout) ([2]; listed as Monastrol) | Substance
equally effective | – | – | – | – | TGF-β: anti-mitogen transforming growth factor β, multifunctional polypeptide signaling factor
– | 14 | 14 | reversible in vitro and in vivo | reversible in vitro | monastrol
